From patent US20150283227A1, “SYNTHETIC ENV PROTEINS” (priority 2012, published 2015)
Entries after “also recorded” stand apart in the source; their conditions may differ. Where two headings read alike, the source gives them in different places. Marks after values point to notes of the source that are not given here. Where a SMILES comes first, the peptide text is derived from it. [ ]: non-standard residue; d: D form. The star is where a group is joined. ξ: configuration not given here. X1 = CC(=O)NC1C(O)[C@H](O)C(CO)O[C@H]1O[C@@H]1C(CO)O[C@@H](N*)C(NC(C)=O)C1O; Orn(CH(NH2)2) = NC(N)NCCC[C@H](N)C(=O)O; Ile(3ξ) = CCC(C)[C@H](N)C(=O)O; Thr(3ξ) = CC(O)[C@H](N)C(=O)O

Columns and labels:
BnAb CH01 = assay: SPR binding of V1V2 peptides/glycopeptides to captured mAb CH01; set-up: species or system human
CH01 UCA = assay: SPR binding to unmutated ancestor of CH01; set-up: species or system human; settings: for SPR binding to CH01 UA: Example 1; for SPR binding to CH01 UCA / Kd: Example 6
Protocol: (§1) Only the V1/V2 mAb CH58 bound to the glycan-deficient (aglycone) peptide (FIG. 9A). V1/V2 bNAbs ([…], CH01) bound weakly to V1/V2 GlcNAc2 peptide (FIG. 9B). In contrast, both bNAbs PG9 and CH01 bound avidly to the glycopeptides, V1/V2 Man3GlcNAc2 and V1/V2 Man5GlcNAc2 (FIGS. 9C and 9D). CH58 bound weakly to both glycopeptides. Each of the mAbs was captured on a human Fc specific IgG directly immobilized on a BIAcore CM5 sensor chip. Each of the V1/V2 peptides (3 min at 50 uL/min) was injected over the mAb captured surface and SPR binding was monitored on a BIAcore 3000 instrument. Non-specific binding of peptides was subtracted following measurement of signal on a surface with a control ant-RSV mab Synagis.
(§2) The binding Kd (disassociation constant) of the UAs ranges from about 0.15 to 0.2 μM.
(§3) V1V2 glycopeptide binding Kd and rate constant measurements were carried out on BIAcore 3000 instruments as described earlier (Alam et al, Immunol. 178(7):4424-4435 (2007), Alam et al, J. Virol. 82(1):115-125 (2008)). Anti-human IgG Fc antibody (Sigma Chemicals) was immobilized on either a CM3 or CM5 (CM3 for kinetics and Kd determination) sensor chip (to minimize non-specific binding of peptides to chip matrix) to about 5000 Resonance Unit (RU) and each antibody was captured to about 100-200 RU on individual flow cells, in addition to one flow cell with the control Synagis mAb on the same sensor chip. Non-specific binding of V1V2 glycopeptide was double-referenced by substracting the control surface and blank buffer flow for each mAb-V1V2 glycopeptide binding interaction. […] SPR curve fitting analysis was performed using global fit of multiple titrations to the 1:1 Langmuir model. All data analysis was performed using the BIAevaluation 4.1 analysis software (GE Healthcare).

V2 mAb CH58 = assay: SPR binding of V1V2 peptides/glycopeptides to captured V2 mAb CH58; set-up: species or system human
BnAb PG9 = type: binding, human
Protocol: V1V2 glycopeptide binding Kd and rate constant measurements were carried out on a BIAcore 3000 instrument using an anti-human Ig Fc capture assay as described earlier (Alam, S. M.; McAdams, M.; Boren, D.; Rak, M.; Scearce, R. M.; Gao, F.; Camacho, Z. T.; Gewirth, D.; Kelsoe, G.; Chen, P.; Haynes, B. F. J. Immunol. 2007, 178, 4424-4435.). Anti-human IgG Fc antibody (Sigma Chemicals) was immobilized on a CM5 sensor chip to about 10000 response units (RU), and each antibody was captured to about 300 RU. Anti-RSV Synagis mAb was captured on the same sensor chip as a control surface. Non-specific binding and drift in signal was double referenced by subtracting binding to the control surface and blank buffer flow for each of the peptide binding interactions. All curve-fitting analyses were performed using global fit of multiple titrations to the 1:1 Langmuir model. All data analysis was performed using the BIAevaluation 4.1 analysis software (GE Healthcare).

PG9 UCA = assay: SPR binding to unmutated ancestor of PG9; set-up: species or system human; settings: for SPR binding to PG9 UA: Example 1; for SPR binding to PG9 UCA / Kd: Example 6
Protocol: as §1, §2, §3

[1] = Circular dichroism analysis of V1V2 peptides; type: physicochemical; settings: dimerized in 20% DMSO-phosphate buffer about 20 h
Protocol: Circular dichroism (CD) spectra of V1/V2 peptides were measured on an Aviv model 202 spectropolarimeter using a 1 mm path length quartz cuvette. The 20% DMSO-treated peptides were dialyzed against 20 mM phosphate buffer, pH 7.0 to remove DMSO using a dialysis cassette of MW cut-off 3500 Da. The CD spectra of peptides (at 100 200 μg/ml concentration) in phosphate buffer (pH 7.4) were recorded at 25° C. Three scans of the CD spectra of each peptide were averaged and the CD signal from phosphate buffer was subtracted out.

CH58 UCA = assay: SPR binding to unmutated ancestor of CH58; set-up: species or system human
Protocol: as §1, §3

V2 mAb CH59 = assay: SPR binding of V1V2 peptides to captured V2 mAb CH59; set-up: species or system human; settings: Example 6; peptide oxidized by solubilization in DMSO, 50 ug/mL
Text: FIGS. 42A-42D. Selective binding of V1V2 BnAbs to mannose derivatized V1V2 glycopeptides but not to aglycone or GlcNAc2 V1V2 peptides. SPR curves showing preferential binding of PG9 and CH01 BnAbs to Man5—(FIG. 42A) and Man3—(FIG. 42B) GlcNAc2 V1V2 glycopeptides but not to GlcNAc2 (FIG. 42C) and aglycone (FIG. 42D) peptides. By contrast, V2 mAbs CH58 and CH59 bound to both aglycone ([…]) and GlcNAc2 (FIG. 42D) V1V2 peptides. Each V1V2 peptide was oxidized by solubilization in DMSO and injected over the indicated MAb at 50 ug/mL. Data shown is after reference subtraction of non-specific signal measured over the control mAb (Synagis). Binding data are representative of at least three experiments for Man5 and Man3 V1V2 peptides and two experiments for GlcNAc2 and aglycone V1V2.
V1V2 glycopeptide binding Kd and rate constant measurements were carried out on BIAcore 3000 instruments as described earlier (Alam et al, Immunol. 178(7):4424-4435 (2007), Alam et al, J. Virol. 82(1):115-125 (2008)). Anti-human IgG Fc antibody (Sigma Chemicals) was immobilized on either a CM3 or CM5 (CM3 for kinetics and Kd determination) sensor chip (to minimize non-specific binding of peptides to chip matrix) to about 5000 Resonance Unit (RU) and each antibody was captured to about 100-200 RU on individual flow cells, in addition to one flow cell with the control Synagis mAb on the same sensor chip. […]

[2] = Example 6, iodine-oxidized glycopeptide, 50 ug/mL
[3] = Example 6, spontaneously (air) oxidized, phosphate buffer, 50 ug/mL
[4] = Example 6, peptide solubilized/oxidized in DMSO, 50 μg/mL

Compound: Man3GlcNAc2 V1V2
- SPR binding to CH01 (BnAb CH01; Example 1, peptide injected over captured mAb, listed as V1/V2 Man3GlcNAc2): bound avidly; also recorded: bind selectively
- SPR binding to CH01 (BnAb CH01; [2]): not to the BnAbs CH01 or PG9
- SPR binding to CH01 (BnAb CH01; [3]): weak or no binding
- ka (BnAb CH01; Table 1, CH01, DMSO-oxidized dimer): 9.97 M^−1s^−1 (×10^3)
- SPR binding to CH01 UA (CH01 UCA): binds
- SPR binding to CH01 UCA (CH01 UCA): bound
- Kd (CH01 UCA; CH01 UCA, DMSO-oxidized dimer): 1800 nM
- Kd (CH01 UCA; CH01 UCA, DMSO-oxidized dimer, derived using faster component of dissociation phase): 1780 nM
- ka (CH01 UCA; Table 1, CH01 UCA, DMSO-oxidized dimer): 2.06 M^−1s^−1 (×10^3)
- SPR binding to CH58 (V2 mAb CH58; Example 1, antigen injected over captured mAb): bound weakly
- SPR binding to CH58 (V2 mAb CH58; [2]): bound
- SPR binding to CH58 (V2 mAb CH58; [3]): show binding
- SPR binding to PG9 (BnAb PG9; Example 1, peptide injected over mAb captured on anti-human Fc, BIAcore 3000, listed as V1/V2 Man3GlcNAc2): bound avidly; also recorded: bind selectively
- Kd (BnAb PG9; Example 5, PG9, read-out: Kd (order of magnitude)): ~100 nM
- Kd (BnAb PG9; Example 5, glycopeptide 1-40 μg/mL over captured PG9, not deliberately oxidized, global fit 1:1 Langmuir, read-out: Kd): 119 nM
- Kd (BnAb PG9; Example 6, PG9, glycopeptide fully oxidized in 20% DMSO (dimer), listed as Man3, read-out: Kd): 37 nM
- Kd (BnAb PG9; Example 6, PG9, glycopeptide fully oxidized in 20% DMSO (dimer), listed as Man3 GlcNAc2, read-out: Kd): 37.1 nM
- SPR binding to PG9 (BnAb PG9; [3]): weak or no binding
- ka (BnAb PG9; Table 1, PG9, glycopeptide fully oxidized in 20% DMSO (dimer)): 3.97 M^−1s^−1 (×10^3)
- SPR binding to PG9 UA (PG9 UCA): binds
- SPR binding to PG9 UCA (PG9 UCA): bound
- Kd (PG9 UCA; PG9 UCA, DMSO-oxidized dimer): 1100 nM
- Kd (PG9 UCA; PG9 UCA, DMSO-oxidized dimer, derived using faster component of dissociation phase): 1060 nM
- ka (PG9 UCA; Table 1, PG9 UCA, DMSO-oxidized dimer): 5.33 M^−1s^−1 (×10^3)
- β-strand (CD spectra deconvolution, K2D3) [1]: 33%
- Kd (CH58 UCA; Example 6, CH58 UCA, DMSO-oxidized dimer, 1-10 μg/mL): 600 nM

Compound: CCC(C)[C@H](NC(=O)[C@@H]1CCCN1C(=O)[C@@H](NC(=O)[C@@H](NC(=O)[C@H](CC(=O)O)NC(=O)[C@H](CC(C)C)NC(=O)[C@H](CCCCN)NC(=O)[C@H](Cc1ccc(O)cc1)NC(=O)[C@H](Cc1ccccc1)NC(=O)[C@H](CC(C)C)NC(=O)[C@H](C)NC(=O)[C@H](Cc1cnc[nH]1)NC(=O)[C@@H](NC(=O)[C@H](CCCCN)NC(=O)[C@H](CCC(N)=O)NC(=O)[C@H](CCCCN)NC(=O)[C@H](CCCCN)NC(=O)[C@H](CC(=O)O)NC(=O)[C@H](CCCNC(=N)N)NC(=O)[C@H](CC(C)C)NC(=O)[C@H](CCC(=O)O)NC(=O)[C@@H](NC(=O)[C@@H](NC(=O)[C@H](CCSC)NC(=O)[C@H](CC(=O)N[C@@H]1OC(CO)[C@@H](O[C@@H]2OC(CO)[C@@H](O)C(O)C2NC(C)=O)C(O)C1NC(C)=O)NC(=O)[C@H](Cc1ccccc1)NC(=O)[C@H](CO)NC(=O)[C@H](CS)NC(=O)[C@H](CC(=O)N[C@@H]1OC(CO)[C@@H](O[C@@H]2OC(CO)[C@@H](O)C(O)C2NC(C)=O)C(O)C1NC(C)=O)NC(=O)[C@H](CCCNC(N)N)NC(=O)[C@@H](NC(=O)[C@H](CCC(=O)O)NC(=O)[C@H](CC(=O)O)NC(=O)[C@@H](NC(=O)[C@@H](NC(C)=O)C(C)CC)C(C)O)C(C)C)C(C)O)C(C)O)C(C)C)C(C)CC)C(C)C)C(N)=O (stereo partly shown) [GlcNAc2 V1V2] (Ac-[Ile(3ξ)][Thr(3ξ)]DEV[Orn(CH(NH2)2)]D(X1)CSFD(X1)M[Thr(3ξ)][Thr(3ξ)]ELRDKKQKVHALFYKLD[Ile(3ξ)]VP[Ile(3ξ)]-NH2)
- SPR binding to CH01 (BnAb CH01; Example 1, peptide injected over captured mAb): bound weakly
- SPR binding to CH01 (BnAb CH01; [4]): no binding
- SPR binding to CH01 UA (CH01 UCA): slow association indicating weak affinity interaction
- SPR binding to CH01 UCA (CH01 UCA): neither UCAs bound
- SPR binding to CH58 (V2 mAb CH58; Example 6, peptide solubilized/oxidized in DMSO, 1-50 μg/mL): retained
- SPR binding to PG9 (BnAb PG9; Example 1, peptide injected over mAb captured on anti-human Fc, BIAcore 3000): bound weakly
- SPR binding to PG9 (BnAb PG9; Example 5, peptides 200 μg/mL, glycans 25 μg/mL over captured PG9, listed as 3): did not bind
- SPR binding to PG9 (BnAb PG9; Example 5, peptides 200 μg/mL, glycans 25 μg/mL over captured PG9, listed as V1V2 GlcNAc2): minimal to no binding
- SPR binding to PG9 (BnAb PG9; [4]): no binding
- SPR binding to PG9 UA (PG9 UCA): no binding
- SPR binding to PG9 UCA (PG9 UCA): neither UCAs bound
- SPR binding to CH59 (V2 mAb CH59): bound
- β-strand (CD spectra deconvolution, K2D3) [1]: 17%
- SPR binding to CH58 UA (CH58 UCA; Example 1): no binding

Compound: CC(=O)NC1C(O)OC(CO)[C@@H](O[C@@H]2OC(CO)[C@@H](O[C@@H]3OC(CO[C@H]4OC(CO[C@H]5OC(CO)[C@@H](O)[C@H](O)C5O)[C@@H](O)[C@H](O[C@H]5O[C@@H](CO)[C@@H](O)C(O)C5O)C4O)[C@@H](O)[C@H](O[C@H]4O[C@@H](CO)[C@@H](O)C(O)C4O)C3O)[C@H](O)C2NC(C)=O)[C@@H]1O (stereo partly shown) [Man5GlcNAc2 glycan alone, reference compound]
- SPR binding to CH01 (BnAb CH01; glycans in the absence of the V2 peptide backbone): not detected
- SPR binding to PG9 (BnAb PG9; Example 5, peptides 200 μg/mL, glycans 25 μg/mL over captured PG9): minimal to no binding
- SPR binding to PG9 (BnAb PG9; Example 5, peptides 200 μg/mL, glycans 25 μg/mL over captured PG9, listed as Man5GlcNAc2 glycan): not detected
